Key:
FcγRIIA [1] = test: Immobilized immune complex (IC)-induced ROS generation in FcγRIIA+/γ-/- mouse bone marrow neutrophils (high-throughput screen); format: cell-based; details: for ROS RLU ratio: compound at 1.1 μM, mouse BMN ROS induced by immobilized IC
Description: Screen of 8,483 compounds was done in collaboration with the Institute of Chemistry and Cell Biology Screening facility at Harvard Medical School (ICCB/Longwood). Each compound was dissolved in DMSO at a concentration of […]. For the primary screen, wells were coated with immune complexes as follows: 0.1 mg/mL poly-L-lysine (Sigma) followed by 2.5% glutaraldehyde were dispensed onto 384-well format black plate (Corning), and the plate was washed once with DDW and twice with PBS, incubated with 100 μL 1 mg/ml bovine serum albumin (BSA) followed by 100 μL 40 μg/mL rabbit anti-BSA antibody to generate in situ immune complexes (IC). Mature murine neutrophils isolated from the bone marrow of FcγRIIA+/γ^-/- mice as previously described, were suspended in 100 uM homovanillic acid/5 U/ml peroxidase IV (Sigma)/1 mM EDTA/HBSS (Thermo) assay solution (pH 7.5) and 3×10^4 cells in 30 μL were loaded per well into a 384-well format plate using a Wellmate automated dispenser (Thermo Scientific). Immediately after dispensing cells, ICCB library compounds dissolved in 33 nL DMSO were dispensed into wells using a Compound Transfer Robot (Epson). The plates were placed in a humidified incubator at 37 C for 60 mins and then fluorescence levels were read out at Ex/Em 321/421 nm with Envision2 (PerkinElmer). PP2 (Sigma), a Src inhibitor known to down-regulate FcγRIIA signal, and DMSO were used as positive and negative control, respectively. All the experiments were performed in duplicate.
An automated high-throughput drug screen in primary neutrophils from mice expressing FcγRIIA on neutrophils and lacking all their endogenous activating murine FcγRs (FcγRIIA^+/γ^-/-) was established to identify compounds that inhibit the activity of FcγRIIA. Immune complex (IC)-induced reactive oxygen species (ROS) generation served as our read-out of FcγRIIA activity. An appropriate positive (PP2, an inhibitor of the FcγR proximal Src-family kinase) and negative (DMSO, vehicle) control was included in the assay. The screen of 8,483 compounds, used at 10 μM in DMSO, yielded 84 hits (1% hit rate) that were defined as those that have an inhibitory potential that is ≧95% of PP2 (FIG. 1A). Of the 30 compounds cherry picked for a secondary screen, ten compounds were identified as having an ability to inhibit neutrophil FcyRIIA induced ROS generation at even lower concentrations (i.e., 1.1 μM or less) (Table 1).

[2] = tested on: FcγRIIA+/γ-/-/Mac-1-/- mice; test: Human lupus serum induced kidney injury model; format: in vivo, mouse
Description: Human serum samples were obtained from the Lupus Clinic at the Beth Israel Deaconess Medical Center from patients with SLE diagnosed according to the classification criteria of the American College of Rheumatology as previously described^13. Informed consent was obtained from all patients and healthy donors under a Beth Israel Deaconess Medical Center Institutional Review Board-approved protocol. FcγRIIA+/γ^-/-/Mac1-mice were injected s.c. in both flanks with 2.5 μg human IgG (Jackson ImmunoResearch Laboratories) in CFA (Thermo Scientific and Difco) on day-3. On days 0 and 2, 200 μl sterile serum was injected i.v. The mice were given an oral administration of Bosutinib (150 mg/kg) or a vehicle solution every 24 hrs from day 0 to 14. Spot urine samples and peripheral blood were collected at indicated time points after human serum injection. Both kidneys from euthanized mice were harvested for histological analysis at day 10 or 14. […]

neutrophils = test: Cell viability by Annexin V and propium iodide; format: cell-based; details: range of concentrations
[3] = mice, gavage; cited from earlier work
FcγRIIA [4] = test: FcγRIIA cross-linking induced ROS generation in FcγRIIA+/γ-/- mouse BMNs (luminol); format: cell-based; details: 100 nM, FIG. 4A
Description: 10^6 BMNs were suspended in PBS without Ca^2+/Mg^2+, and then incubated with 10 μg/ml mouse anti-hFcγRIIa (clone IV.3; StemCell Technologies) on ice for 30 minutes. After washing in PBS, cells were incubated with or without 500 ng/ml mGM-CSF (BioLegend) for 30 minutes. After pretreated with Bosutinib at indicated concentrations or DMSO at 37 C for 30 minutes, luminol (50 μM) in PBS with Ca^2+/Mg^2+ was added, followed immediately by the addition of goat anti-mouse F(ab′)2 (36 μg/ml; Jackson ImmunoResearch). ROS generation (expressed in relative light units) was continuously monitored over time using a 6-channel bioluminat LB-953 luminometer (Berthold). For human PMNs, 5×10^5 cells were analyzed without GM-CSF pretreatment.

With `Cc1n[nH]c2ccc(-c3cncc(OC[C@@H](N)Cc4c[nH]c5ccccc45)c3)cc12` [A-443654] as the compound, how does the “ROS RLU ratio” value (FcγRIIA [1]) read?
The value was 0.266.

For `COc1cc(Nc2c(C#N)cnc3cc(OCCCN4CCN(C)CC4)c(OC)cc23)c(Cl)cc1Cl` [Bosutinib], which “Total leukocyte and neutrophil counts versus vehicle” value ([2]; hemocytometric analysis, day 14) is on record?
Its value is “comparable”.

What about the Hb ([2]; peripheral blood, day 14, AVE) of the same compound?
The Hb was 7.98 g/dL.

And the Neu % ([2]; peripheral blood, day 14, AVE)?
The Neu % was 25.64%.

And the Neu total ([2]; peripheral blood, day 14, AVE)?
The Neu total was 0.7506 K/ul.

What about the Plt total ([2]; peripheral blood, day 14, AVE) of the same compound?
The Plt total was 949.8 K/ul.

What about the RBC ([2]; peripheral blood, day 14, AVE) of the same compound?
The RBC was 7.98 M/ul.

What about the WBC total ([2]; peripheral blood, day 14, AVE) of the same compound?
Its WBC total is 2.656 K/ul.

And the Cell viability (neutrophils)?
Its Cell viability is “did not affect cell viability”.

And the “ROS RLU ratio” value (FcγRIIA [1])?
Its value is 0.033.

And the IC50 (FcγRIIA [1]; mouse BMNs, FIG. 1C)?
The IC50 was about 50 nM.

What about the “Time of peak blood concentration” value [3] of the same compound?
Its value is 2 to 4 h.

For `CN(C)CCCn1cc(C2=C(c3c[nH]c4ccccc34)C(=O)NC2=O)c2ccccc21` [GF109203X], which “ROS RLU ratio” value (FcγRIIA [1]) is on record?
Its value is 0.338.

What does the source list for `Cc1cn(-c2cc(NC(=O)c3ccc(C)c(Nc4nccc(-c5cccnc5)n4)c3)cc(C(F)(F)F)c2)cn1` [Nilotinib]?
Neutrophil ROS generation induced by FcγRIIA cross linking (FcγRIIA [4]): reduced; Potency compared to Bosutinib in FcγRIIA cross linking ROS (FcγRIIA [4]): lower

With `CN(c1ccccc1CNc1nc(Nc2ccc3c(c2)CC(=O)N3)ncc1C(F)(F)F)S(C)(=O)=O` [PF431396] as the compound, how does the “ROS RLU ratio” value (FcγRIIA [1]) read?
The value was 0.301.

For `Cn1cc(C2=C(c3cn(CCCSC(=N)N)c4ccccc34)C(=O)NC2=O)c2ccccc21` [Ro 31-8220], which “ROS RLU ratio” value (FcγRIIA [1]) is on record?
Its value is 0.778.

From patent publication US20170266182A1, “Treatment of IgG-Immune Complex-Mediated Organ Damage” (The Brigham and Women's Hospital, Inc., priority 2014, published 2017)
